Reference: the CheMixHub viscosity set
± gives the uncertainty stated by the source.

Experiment: xn = mol fraction of the nth substance listed

CCOC(=O)OCC + Cc1ccc(C)cc1
viscosity [mPa·s]
Conditions	293.15 K	298.15 K	303.15 K	323.15 K
101 kPa, x1 = 0.0997	0.6494 ± 0.006	0.6068 ± 0.0057	0.5681 ± 0.0053	0.4546 ± 0.0044
101 kPa, x1 = 0.1509	0.6571 ± 0.0061	0.6141 ± 0.0058	0.5733 ± 0.0054	0.4578 ± 0.0045
101 kPa, x1 = 0.2121	0.6663 ± 0.0062	0.6229 ± 0.0059	0.5814 ± 0.0055	0.4633 ± 0.0046
101 kPa, x1 = 0.2979	0.6785 ± 0.0064	0.6347 ± 0.0061	0.5918 ± 0.0057	0.4704 ± 0.0047
101 kPa, x1 = 0.3942	0.693 ± 0.0067	0.6486 ± 0.0064	0.6058 ± 0.0059	0.4794 ± 0.0049
101 kPa, x1 = 0.495	0.7081 ± 0.007	0.6627 ± 0.0066	0.618 ± 0.0062	0.4891 ± 0.0051
101 kPa, x1 = 0.5955	0.7239 ± 0.0073	0.6787 ± 0.007	0.6309 ± 0.0065	0.4973 ± 0.0053
101 kPa, x1 = 0.7004	0.7423 ± 0.0078	0.6948 ± 0.0073	0.6471 ± 0.0068	0.508 ± 0.0055
101 kPa, x1 = 0.8	0.7603 ± 0.0082	0.7126 ± 0.0077	0.6639 ± 0.0072	0.5178 ± 0.0058
101 kPa, x1 = 0.8891	0.7782 ± 0.0086	0.7304 ± 0.0081	0.6786 ± 0.0075	0.5292 ± 0.0061
101.3 kPa, x1 = 0.1027	–	0.607 ± 0.008	–	–
101.3 kPa, x1 = 0.1721	–	0.615 ± 0.008	–	–
101.3 kPa, x1 = 0.2449	–	0.622 ± 0.008	–	–
101.3 kPa, x1 = 0.3566	–	0.636 ± 0.008	–	–
101.3 kPa, x1 = 0.4208	–	0.643 ± 0.008	–	–
101.3 kPa, x1 = 0.4919	–	0.658 ± 0.009	–	–
101.3 kPa, x1 = 0.6427	–	0.68 ± 0.009	–	–
101.3 kPa, x1 = 0.716	–	0.687 ± 0.009	–	–
101.3 kPa, x1 = 0.7162	–	0.687 ± 0.009	–	–
101.3 kPa, x1 = 0.8043	–	0.701 ± 0.009	–	–
101.3 kPa, x1 = 0.9158	–	0.723 ± 0.009	–	–

Cc1ccccc1C + Cc1ccc(C)cc1
101.3 kPa
Conditions	viscosity [mPa·s]
298.15 K, x1 = 0.0748	0.6114 ± 0.0052
298.15 K, x1 = 0.1866	0.6242 ± 0.0053
298.15 K, x1 = 0.3032	0.641 ± 0.0054
298.15 K, x1 = 0.4147	0.6549 ± 0.0055
298.15 K, x1 = 0.5702	0.6779 ± 0.0057
298.15 K, x1 = 0.6823	0.6995 ± 0.0058
298.15 K, x1 = 0.8109	0.7176 ± 0.0059
298.15 K, x1 = 0.9402	0.7417 ± 0.0061
303.15 K, x1 = 0.0902	0.5764 ± 0.005
303.15 K, x1 = 0.2065	0.5904 ± 0.0051
303.15 K, x1 = 0.3178	0.604 ± 0.0052
303.15 K, x1 = 0.4339	0.6204 ± 0.0053
303.15 K, x1 = 0.4577	0.6237 ± 0.0053
303.15 K, x1 = 0.5832	0.642 ± 0.0054
303.15 K, x1 = 0.6243	0.6474 ± 0.0055
303.15 K, x1 = 0.7864	0.6729 ± 0.0056
303.15 K, x1 = 0.8933	0.6889 ± 0.0057

Cc1ccccc1C + Cc1cccc(C)c1
viscosity [mPa·s], 101.3 kPa
Conditions	x1 = 0.0817	x1 = 0.1825	x1 = 0.2946	x1 = 0.4285	x1 = 0.5533	x1 = 0.6715	x1 = 0.7904	x1 = 0.9	x1 = 0.9001
298.15 K	0.5998 ± 0.0052	0.6144 ± 0.0052	0.6303 ± 0.0054	0.6512 ± 0.0055	0.6731 ± 0.0056	0.6924 ± 0.0058	0.7148 ± 0.0059	0.7349 ± 0.006	–
303.15 K	0.5668 ± 0.0049	0.5783 ± 0.005	0.5938 ± 0.0051	0.6119 ± 0.0052	0.631 ± 0.005	0.6486 ± 0.0055	0.6675 ± 0.0056	–	0.6859 ± 0.0057
